Reference: patent publication US12403151B2, “Compositions for use in the promotion of intestinal muscle growth and development and associated intestinal motility” (SOCIETE DES PRODUITS NESTLE S.A., priority 2017, dated 2025)
Entries after “also recorded” stand apart in the source; their conditions may differ.

Tested on: muscle layer of the ileum
Experiment: Thickness of the muscle layer of the ileum in young IUGR rats supplemented with HMOs
Type: in vivo, Sprague-Dawley rats
Details: IUGR rat pups; 3 g/kg body weight HMO by gavage d7 to d21, then 4.5% HMO in diet d22 to d57 (mix: LNnT:2FL 1:2 by weight, 1.5% + 3%); sacrificed at day 57; H&E histology; compared with Normal and IUGR control groups
From the text: Three groups of time-mated pregnant Sprague-Dawley female rats were bought from Charles River laboratories. One group was submitted to food restriction of 60% during the last 10 days of gestation and their offspring were cross-fostered to normally fed rats. A second group of pregnant females was normally fed and their offspring cross-fostered among the same group of dams. Immediately after birth (postnatal day 2 (d=2)), the born rat pups—subjects of the experiment—were assigned to one of the following groups: • Normal group (positive control): Normal-weight offspring born from unrestricted dams and fed after birth a normal non-supplemented diet; • IUGR group (negative control; n=20): IUGR rats being fed a normal diet after birth; • IUGR rats+HMO (test groups): During the experiment, they were reared by their mothers for 21 days and supplemented with HMOs (2-FL, LNnT or the Mix of 2-FL and LNnT). At weaning, they were fed a diet supplemented with the same HMOs, see details below. […]
Rats were sacrificed at day 57 after a 6-hr fasting period and samples of the small intestine were collected. The thickness of the muscle layer was measured on a sample of the ileum. […]

Compound | thickness of the muscle layer of the ileum (mean per group, FIG. 1)
CC(=O)N[C@H]1[C@H](O[C@H]2[C@@H](O)[C@@H](CO)O[C@@H](O[C@H]3[C@H](O)[C@@H](O)C(O)O[C@@H]3CO)[C@@H]2O)O[C@H](CO)[C@@H](O[C@@H]2O[C@H](CO)[C@H](O)[C@H](O)[C@H]2O)[C@@H]1O (mixture of isomers) [LNnT, lacto-N-neotetraose] | successful in increasing the thickness; also recorded: increase of the ileum muscle thickness over both the Normal and the IUGR groups
2′-fucosyllactose [2FL, reference compound] | no increase in intestinal muscle thickness
